Assay results published in patent US7629315B2, “Compositions for blocking the inhibitory effect of human CRP on human leptin” (University of Pittsburgh of the Commonwealth System of …, priority 2005, dated 2009).

Legend:
mice = experiment: Continuous infusion of leptin in mice, plasma SAP; format: in vivo, mouse; conditions: elevation of serum leptin through continuous infusion in mice
ob/ob mice = experiment: Infusion of human CRP and/or human leptin by osmotic pumps into ob/ob mice; format: in vivo, mouse
Experimental: 3(a). In vivo assessment of CRP functions: The micro-osmotic pumps (#1007D, DURECT, Cupertino, Calif.) were subcutaneously imbedded in the ob/ob or wild-type mice according to the instructions of the manufacturer. The osmotic pumps were pre-filled with saline, CRP, leptin or leptin plus CRP. Food-intake (24-h), body weight, and body temperature were monitored daily post-surgery. Blood glucose concentrations were measured from the tail-vein blood samples right before and at the end of infusion with a Precision Plus glucose meter (Medisense, Abbot Park, Ill.).
3(b) Assessment of serum leptin insulin, and CRP: Human- and mouse-leptin concentrations were measured with the ELISA kit from CHEMICON (Temecular, Calif.) and R&D Systems (Minneapolis, Minn.), respectively, according to the instructions of the manufacturer. Serum mouse insulin concentrations were determined with an ELISA assay (LINCO Research, St. Charles, Mo.). Human CRP concentrations were also evaluated with an ELISA kit (Alpha Diagnostics International, San Antonio, Tex.).
3(c) Measurement of serum- and tissue-triglycerides: Serum- and tissue-triglycerides were determined with the protocols described in J. N. Huan et al., 2003, J. Biol. Chem. 278, 45638. […]

lean and healthy humans = experiment: Injection of leptin in lean and healthy humans, plasma CRP; format: in vivo, human
[1] = target: T1, long-form human leptin receptor, OB-Rb (Homo sapiens, UniProt P48357); experiment: 125I-leptin binding to HEK293 cells stably transfected with OB-Rb; conditions: HEK293 cell line stably transfected with OB-Rb; read-out: Kd for leptin and its receptors
T1 construct: expressed in transfected cells
T1 sequence (P48357 22-1165): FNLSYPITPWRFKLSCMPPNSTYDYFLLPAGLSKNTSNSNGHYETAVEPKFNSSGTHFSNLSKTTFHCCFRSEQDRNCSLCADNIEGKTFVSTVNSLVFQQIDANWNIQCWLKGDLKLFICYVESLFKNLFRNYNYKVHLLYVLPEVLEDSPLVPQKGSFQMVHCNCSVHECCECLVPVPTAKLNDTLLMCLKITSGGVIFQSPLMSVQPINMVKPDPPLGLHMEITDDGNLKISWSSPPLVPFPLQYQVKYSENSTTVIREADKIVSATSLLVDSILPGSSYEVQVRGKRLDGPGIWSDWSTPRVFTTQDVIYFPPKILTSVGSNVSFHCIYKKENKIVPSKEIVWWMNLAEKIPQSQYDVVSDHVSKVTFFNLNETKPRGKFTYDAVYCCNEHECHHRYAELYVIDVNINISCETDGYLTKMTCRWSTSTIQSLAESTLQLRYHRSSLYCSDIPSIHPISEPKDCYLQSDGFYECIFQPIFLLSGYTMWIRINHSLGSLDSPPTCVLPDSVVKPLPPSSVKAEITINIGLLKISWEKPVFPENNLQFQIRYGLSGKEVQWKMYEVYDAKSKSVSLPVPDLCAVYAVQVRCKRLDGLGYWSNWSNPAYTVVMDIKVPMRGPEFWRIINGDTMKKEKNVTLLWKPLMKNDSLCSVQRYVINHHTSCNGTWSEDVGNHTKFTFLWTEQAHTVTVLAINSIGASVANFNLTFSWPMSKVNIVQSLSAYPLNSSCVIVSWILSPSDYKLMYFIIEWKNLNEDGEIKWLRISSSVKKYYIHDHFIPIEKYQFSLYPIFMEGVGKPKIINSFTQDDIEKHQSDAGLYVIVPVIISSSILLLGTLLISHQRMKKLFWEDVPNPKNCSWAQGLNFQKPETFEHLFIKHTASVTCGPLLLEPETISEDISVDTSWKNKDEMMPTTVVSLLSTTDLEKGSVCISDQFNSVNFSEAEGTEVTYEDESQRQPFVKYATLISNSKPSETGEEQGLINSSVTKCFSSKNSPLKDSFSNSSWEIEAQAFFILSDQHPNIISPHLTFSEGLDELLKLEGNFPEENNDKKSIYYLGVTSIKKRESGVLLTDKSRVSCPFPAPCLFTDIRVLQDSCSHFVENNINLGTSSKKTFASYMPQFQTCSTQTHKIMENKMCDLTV
Experimental: 4. Measurement of IC50 for human CRP against human leptin: Human leptin was iodinated with Na^125I using the lodogen method. Briefly, 15 μg of human leptin in 100 mM Phosphate buffer pH 7.5 were incubated with 1 mCi of carrier-free Na^125I (2200 Ci/mmol) in a glass tube containing 50 μg Iodogen. After 10 minute incubation at room temperature, the reaction was stopped with 100 μl 0.1% trifluoroacetic acid (TFA). The reaction mixture was immediately purified by reverse-phase HPLC. The separation employed a 5 minute isocratic step at 20% eluant B in A, followed by two consecutive 30 minute linear gradients from 20 to 50%, then from 50 to 60% eluant B in A (where eluant A is water containing 0.1% TFA and eluant B is acetonitrile containing 0.1% TFA) at a flow rate of 1.5 ml/min. The ^125I-labeled leptin (˜2 ng/ml) was pre-incubated with various concentrations of human CRP in 1 ml of μ-MEM for 30 minute before added to the OBR-expressing HEK293 cells. The incubation would last for 3 hours at 4° C. before the media was aspirated and the cells were dissolved in 0.1N NaOH for scintillation counting.
To examine if human CRP interferes with the binding of human leptin to its receptors, we used a HEK293 cell line stably transfected with the long-form human leptin receptor, OB-Rb. The characterization of this cell line has been reported in earlier studies. M. Friedman-Einat et al., 2003, Regul. Pept. […]

[2] = tested on: human primary hepatocytes; experiment: Leptin-stimulated CRP expression in human primary hepatocytes in vitro; format: cell-based
leptin = experiment: Immunoprecipitation of mouse SAP with leptin; format: binding
[3] = human leptin alone, 6-day continuous infusion

In the case of “human leptin: recombinant human leptin, adipocyte hormone (SEQ ID NO:4)”, the “plasma concentrations of SAP” value (mice) is reported as “increased plasma concentrations of SAP in mice”, the body weight (ob/ob mice; [3]) is reported as “produced the expected reduction in food-intake and body weight” and the food-intake (ob/ob mice; [3]) is reported as “produced the expected reduction in food-intake and body weight”. For the same molecule, the blood glucose (ob/ob mice; leptin alone) was “lowering”, the hepatic triglyceride (ob/ob mice; leptin alone) was “lowering” and the plasma insulin (ob/ob mice; leptin alone) was “lowering”. For the same molecule, the serum triglyceride (ob/ob mice; leptin alone) was “lowering”, the “plasma CRP concentrations” value (lean and healthy humans) was “leads to elevation of plasma CRP concentrations” and the Kd [1] was 1 nM. For the same molecule, the “expression of CRP” value [2] was “stimulates expression of CRP”.

B1: mouse SAP: mouse pentraxin-like serum amyloid P component structurally similar to CRP (protein)
chain: QTDLKRKVFVFPRESETDHVKLIPHLEKPLQNFTLCFRTYSDLSRSQSLFSYSVKGRDNELLIYKEKVGEYSLYIGQSKVTVRGMEEYLSPVHLCTTWESSSGIVEFWVNGKPWVKKSLQREYTVKAPPSIVLGQEQDNYGGGFQRSQSFVGEFSDLYMWDYVLTPQDILFVYRDSPVNPNILNWQALNYEINGYVVIRPRVWD
For B1, the “binding of leptin (immunoprecipitation)” value (leptin) was “leptin binds to mouse SAP”.
